According to patent publication US20080167461A1, “Process for Preparing 3,6-Dichloropyridazine-1-Oxide” (SANKYO AGRO COMPANY, LIMITED, priority 2005, published 2008):

How the values were obtained:
rice plants = assay: Chemical damage to transplanted rice plants (flooding soil treatment, pot test); format: in vivo
Text: (§1) Rice paddy soil was filled into a 1/10,000a pot, followed by mixing seeds of dormancy awakening Echinochloa oryzicola and Scirpus joncoides, and annual broadleaf weeds (Lindernia spp. and Rotala indica) in 1 cm of the surface layer of soil. In addition, Cyperus serotinus tubers subjected to accelerated germination were planted, followed by transplanting rice seedlings at the 2.2 leaf stage and growing under flooding conditions in a greenhouse. Three days after transplant, a predetermined dose of the wettable powder prepared according to Reference Example 2 was diluted with water, the soil was treated with a spraying solution thereof under flooding conditions and herbicidal effects and chemical damage to the transplanted rice plants were measured according to the evaluation criteria shown below 25 days after treatment.
(§2) 0: Growth inhibition rate 0 to 10%
(§3) 1: Growth inhibition rate 11 to 30%
(§4) 2: Growth inhibition rate 31 to 50%
(§5) 3: Growth inhibition rate 51 to 70%
(§6) 4: Growth inhibition rate 71 to 90%
(§7) 5: Growth inhibition rate 91 to 100%

[1] = test system: annual broadleaf weeds (Lindernia spp. and Rotala indica); assay: Treatment prior to germination of rice paddy weeds (flooding soil treatment, pot test); format: in vivo; settings: dose 10 g/a; wettable powder diluted with water, treated 3 days after transplant under flooding; evaluated 25 days after treatment
Text: as §1, §2, §3, §4, §5, §6, §7

Cyperus serotinus = assay: as above; format: in vivo; settings: dose 10 g/a; wettable powder diluted with water, treated 3 days after transplant under flooding; evaluated 25 days after treatment
Text: as §1, §2, §3, §4, §5, §6, §7

Scirpus joncoides = assay: as above; format: in vivo; settings: dose 10 g/a; wettable powder diluted with water, treated 3 days after transplant under flooding; evaluated 25 days after treatment
Text: as §1, §2, §3, §4, §5, §6, §7

Echinochloa oryzicola = assay: as above; format: in vivo; settings: dose 10 g/a; wettable powder diluted with water, treated 3 days after transplant under flooding; evaluated 25 days after treatment
Text: as §1, §2, §3, §4, §5, §6, §7

[2] = test system: dominant weeds of rice paddies; assay: Herbicidal activity in rice paddies, flooding soil treatment before or after weed germination (general statement); format: in vivo
Text: The compound synthesized in Reference Example 1 has herbicidal action, and can be used as a herbicide.

SMILES: Cc1cccc(C)c1Oc1nnc(Cl)cc1O [Reference Example 1, 6-Chloro-3-(2,6-dimethylphenoxy)-4-pyridazinol]
- melting point: 214 to 215 °C
- chemical toxicity with respect to rice (rice plants; flooding soil treatment before or after weed germination, general statement): without demonstrating problems in terms of chemical toxicity
- activity against rice plants (chemical damage grade) (rice plants; transplanted rice seedlings (2.2 leaf stage), dose 10 g/a, evaluated 25 days after treatment): 0 (Growth inhibition rate 0 to 10%)
- herbicidal activity (growth inhibition grade) against broadleaf weeds [1]: 5 (Growth inhibition rate 91 to 100%)
- herbicidal activity (growth inhibition grade) against Cyperus serotinus (Cyperus serotinus): 5 (Growth inhibition rate 91 to 100%)
- herbicidal activity (growth inhibition grade) against Scirpus joncoides (Scirpus joncoides): 5 (Growth inhibition rate 91 to 100%)
- herbicidal activity (growth inhibition grade) against Echinochloa oryzicola (Echinochloa oryzicola): 2 (Growth inhibition rate 31 to 50%)
- herbicidal activity against dominant weeds of rice paddies [2]: demonstrates herbicidal activity
